Assay results reported in PubChem BioAssay AID651801 (Broad Institute, 2012).
Active and inactive are the calls of the source.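 The calls were made as follows: active = signal falling with dose and AC50 at most twice the top valid tested dose; inconclusive = flat fit with inhibition of 30 to 70%, or poor fit; inactive = the rest, plus effects in the rising direction.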

Molecular target: Kelch-like ECH-associated protein 1 (Homo sapiens) (UniProt Q14145)
Assay: Keap1-Nrf2 protein-protein interaction inhibitors, dose response, biochemical, fluorescence polarization, dry powder, set 2 (AID 651801)
Details: Keap1 Kelch/FITC-Nrf2 peptide fluorescence polarization; for activity change, negative = inhibition: at 50 µM (top of the series)

Chain of Kelch-like ECH-associated protein 1 (Homo sapiens) (Q14145 whole entry, looked up): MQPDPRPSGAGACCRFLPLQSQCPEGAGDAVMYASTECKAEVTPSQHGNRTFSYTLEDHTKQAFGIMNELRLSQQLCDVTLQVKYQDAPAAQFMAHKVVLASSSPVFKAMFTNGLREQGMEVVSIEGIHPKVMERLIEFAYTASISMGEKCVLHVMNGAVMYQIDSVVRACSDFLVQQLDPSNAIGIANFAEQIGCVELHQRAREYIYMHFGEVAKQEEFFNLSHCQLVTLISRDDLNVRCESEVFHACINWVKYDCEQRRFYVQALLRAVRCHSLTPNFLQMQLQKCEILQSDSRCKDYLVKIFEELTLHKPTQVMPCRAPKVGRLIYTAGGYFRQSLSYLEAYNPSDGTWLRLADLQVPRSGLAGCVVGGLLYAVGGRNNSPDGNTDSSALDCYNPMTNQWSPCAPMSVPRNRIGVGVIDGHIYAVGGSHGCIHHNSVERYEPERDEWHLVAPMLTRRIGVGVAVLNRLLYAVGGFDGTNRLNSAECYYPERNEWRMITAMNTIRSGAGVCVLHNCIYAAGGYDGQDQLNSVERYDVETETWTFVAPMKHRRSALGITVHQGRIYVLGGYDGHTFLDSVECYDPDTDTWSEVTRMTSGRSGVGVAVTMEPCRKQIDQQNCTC

O=C(O)C1CCCCC1C(=O)N1CCc2ccccc2C1CN1C(=O)[C@H]2CCCC[C@H]2C1=O (stereo partly specified) was tested, and the AC50 was > 100 µM (inactive).

For O=C1c2ccccc2C(=O)N1C[C@@H]1c2ccccc2CCN1C(=O)C1CCCCC1, the “activity change, negative = inhibition” value was “inactive”.

With Cc1ccc(S(=O)(=O)NC(=O)[C@@H]2c3ccccc3CCN2C(=O)[C@@H]2CCCC[C@@H]2C(=O)O)cc1 the AC50 was > 100 µM (inactive) and the “activity change, negative = inhibition” value was “inactive”.

Compound Cc1cc(C)c(S(=O)(=O)Nc2cc(C(C(=O)OC(C)C)C(=O)C(F)(F)F)c(O)c3ccccc23)c(C)c1 (stereo unspecified) has an AC50 of 0.798 µM.

O=C(O)/C=C\C(=O)N1CCc2ccccc2C1CN1C(=O)c2ccccc2C1=O (stereo unspecified) was tested, and the “activity change, negative = inhibition” value was “inactive”.

CC(C)OC(=O)C(C(=O)C(F)(F)F)c1cc(NS(=O)(=O)c2ccccc2)c2ccccc2c1O (stereo unspecified) was tested, and the AC50 was 30 µM.

O=C(O)C1CCCCC1C(=O)N1CCc2ccccc2C1CN1Cc2ccccc2C1=O (stereo unspecified) gave an AC50 of 23.6 µM.

For Cc1ccc(S(=O)(=O)NNc2nc(NCC(N)=O)nc3ccccc23)cc1, the “activity change, negative = inhibition” value was “inactive”.

In the case of Cc1ccc(S(=O)(=O)NNc2nc(N3CC(O)CC3C(=O)O)nc3ccccc23)cc1 (stereo unspecified), the “activity change, negative = inhibition” value is reported as “inactive”.

For O=C(Oc1cc(CN2C(=O)c3ccccc3C2=O)c2ccccc2[n+]1[O-])c1cccc(Cl)c1, the “activity change, negative = inhibition” value was “inactive”.

O=C1c2ccccc2C(=O)N1C[C@H]1NCCc2ccccc21 was tested, and the “activity change, negative = inhibition” value was “inactive”.

O=C(O)c1ccccc1C(=O)N1CCc2ccccc2C1CN1C(=O)c2ccccc2C1=O (stereo unspecified) was tested, and the “activity change, negative = inhibition” value was “inactive”.

With O=C(NC[C@@H]1c2ccccc2CCN1C(=O)[C@@H]1CCCC[C@@H]1C(=O)O)c1ccccc1 the “activity change, negative = inhibition” value was “inactive”.

COc1ccc(CCN=C2C=C(NS(=O)(=O)c3c(C)cc(C)cc3C)c3ccccc3C2=O)cc1 was tested, and the “activity change, negative = inhibition” value was “inactive”.

In the case of O=C(O)CCCC(=O)N1CCc2ccccc2C1CN1C(=O)c2ccccc2C1=O (stereo unspecified), the “activity change, negative = inhibition” value is reported as “inactive”.

For CCOC(=O)Cc1nc(NS(=O)(=O)c2c(C)cc(C)cc2C)c2ccccc2n1, the “activity change, negative = inhibition” value was “inactive”.

With O=C(NCCO)c1ccccc1C(=O)NC[C@@H]1c2ccccc2CCN1C(=O)C1CCCCC1C(=O)O (stereo partly specified) the AC50 was > 100 µM (inactive).

For O=C(O)[C@H]1CCCC[C@H]1C(=O)N1CCC2=C(CCCC2)C1CN1C(=O)c2ccccc2C1=O (stereo partly specified), the AC50 was > 100 µM (inactive) and the “activity change, negative = inhibition” value was “inactive”.

O=C(O)[C@H]1CCCC[C@H]1C(=O)N1CCc2ccccc2[C@H]1CNS(=O)(=O)c1ccccc1 was tested, and the “activity change, negative = inhibition” value was “inactive”.

In the case of O=C(O)C1CCCCC1C(=O)Nc1ccccc1CN1C(=O)c2ccccc2C1=O (stereo unspecified), the “activity change, negative = inhibition” value is reported as “inactive”.

With Cc1ccc(S(=O)(=O)NC[C@@H]2c3ccccc3CCN2C(=O)[C@@H]2CCCC[C@@H]2C(=O)O)c(C)c1 the “activity change, negative = inhibition” value was “inactive”.

With Cc1ccc(S(=O)(=O)Nc2cc(C(C(=O)OC(C)C)C(=O)C(F)(F)F)c(O)c3ccccc23)c(C)c1 (stereo unspecified) the AC50 was 2.43 µM.

NC(=O)[C@H]1CCCC[C@H]1C(=O)N1CCc2ccccc2[C@H]1CN1C(=O)c2ccccc2C1=O was tested, and the “activity change, negative = inhibition” value was “inactive”.

In the case of CCOC(=O)C(C(=O)OCC)c1nc(NS(=O)(=O)c2c(C)cc(C)cc2C)c2ccccc2n1, the “activity change, negative = inhibition” value is reported as “inactive”.

Cc1ccc(S(=O)(=O)Nc2cc(C(C(=O)OC(C)C)C(=O)C(F)(F)F)c(O)c3ccccc23)cc1 (stereo unspecified) showed an AC50 of 7.4 µM.

In the case of O=C(Cc1ccccc1)NC[C@@H]1c2ccccc2CCN1C(=O)[C@@H]1CCCC[C@@H]1C(=O)O, the “activity change, negative = inhibition” value is reported as “inactive”.

O=C(O)[C@H]1CCCC[C@H]1C(=O)N1CCc2ccccc2C1 (racemic) was tested, and the “activity change, negative = inhibition” value was “inactive”.

With O=C(O)[C@H]1CCCC[C@H]1C(=O)N1CCc2ccccc2[C@H]1CNS(=O)(=O)c1ccc([N+](=O)[O-])cc1 the “activity change, negative = inhibition” value was “inactive”.

For O=C(O)CC(=O)N1CCc2ccccc2C1CN1C(=O)c2ccccc2C1=O (stereo unspecified), the “activity change, negative = inhibition” value was “inactive”.

COC(=O)[C@@H]1CCCC[C@@H]1C(=O)N1CCc2ccccc2[C@H]1CN1C(=O)c2ccccc2C1=O was tested, and the “activity change, negative = inhibition” value was “inactive”.

In the case of COC(=O)[C@H]1CCCC[C@H]1C(=O)N1CCc2ccccc2[C@H]1CN1C(=O)c2ccccc2C1=O, the “activity change, negative = inhibition” value is reported as “inactive”.

With C[C@H](NC(=O)C1CCCC[C@H]1C(=O)O)c1ccccc1 (mixture of isomers) the “activity change, negative = inhibition” value was “inactive”.

In the case of Cc1ccc(S(=O)(=O)NC2=CC(=N[C@@H](C)C(=O)OC(C)(C)C)C(=O)c3ccccc32)c(C)c1, the “activity change, negative = inhibition” value is reported as “inactive”.

With COC(=O)[C@@H]1CCCC[C@@H]1C(=O)N1CCc2ccccc2[C@@H]1CN1C(=O)c2ccccc2C1=O the “activity change, negative = inhibition” value was “inactive”.
